# In US20260256794A1, “Oral Dynamine Formulations and Methods Therefor” (Ortho-Nutra, LLC, priority 2023, published 2026):
# How the values were obtained:
# [1] = test system: subjects; assay: Stroop-Total Score; format: in vivo, human
# Method: (§1) The inventors have discovered various compositions and methods of improving various indices of neurological and neuroenergetic functions by administering 100 mg (once daily) dosages of DYNAMINE™ (dosage between 1.0 and 1.4 mg/kg) as described in the following:
# (§2) All neuroenergetic tests as listed below were performed and data were collected after 0 and 4 days of assigned supplements (with acute effects also measured at day 4 over 180 minutes):
# (§3) Stroop Color Matching Test (Total Score, Accuracy %, Average Score): Day 0: Two blocks of three tests were completed. Each block of three tests was separated by 10 minutes. The median of each block was taken and then those two scores were averaged. This value was used in all statistical analysis. Day 4: Three tests were completed at four time points: after 0, 60, 120, and 180 minutes of taking dose #4. The median of the three tests at each time point was used in all statistical analysis.
# (§4) The Stroop Color and Word Test (SCWT, or Stroop test) is a neuropsychological test extensively used to assess the ability to inhibit cognitive interference that occurs when the processing of a specific stimulus feature impedes the simultaneous processing of a second stimulus attribute, well-known as the Stroop effect (see e.g., Front Psychol. 2017; 8:557). Here, subjects were required to read three different tables as fast as possible. Two of them represent the “congruous condition” in which participants are required to read names of colors (‘color-words’) printed in black ink (W) and name different color patches (C). However, in the third table, the color-word (CW) condition, color-words are printed in an inconsistent color ink (e.g., the word “red” is printed in green ink). In this incongruent condition, participants are required to name the color of the ink instead of reading the word. In other words, the participants are required to perform a less automated task (i.e., naming ink color) while inhibiting the interference arising from a more automated task (i.e., reading the word). This difficulty in inhibiting the more automated process is called the Stroop effect. The Stroop test is predominantly used to measure the ability to inhibit cognitive interference. However, some sources also report its application to measure other cognitive functions such as attention, processing speed, cognitive flexibility, and working memory.
# (§5) Stroop-Total Score: The results for this test were based on a total score comparing performance between Day 0 and Day 4, with Day 4 including tests over a duration of 180 minutes. Results were collected as noted above and Table 41 provides exemplary results for Day 0 versus Day 4 ratings, whereas Table 42 provides exemplary acute results measured at Day 4 over a duration of 180 minutes.
# [2] = test system: subjects; assay: Stroop-Average Time; format: in vivo, human; conditions: unit assumed
# Method: as §1, §2, §3, §4
# as §5, with “Stroop-Average Time:” for “Stroop-Total Score:”, “an average time” for “a total”, “45” for “41”, “46” for “42”
# [3] = test system: subjects; assay: VAS-Positivity; format: in vivo, human; parameters: VAS-Positivity rating, Mean: scale not given here
# Method: as §1, §2
# (§6) All VAS Measurement (Energy, Sustained Energy, Mental Stamina, Ability to Focus, Ability to Concentrate, Motivation to Accomplish Difficult Tasks, Drive, Vigor, Level of Positive Outlook, Mood, Feelings of Well-Being, Tolerate Stress); Day 0: Two tests were completed. The average of both scores was computed and this value was used in all statistical analysis. Day 4 (0 minutes after ingesting dose #4): Two tests were completed. The average of both scores was computed and this value was used in all statistical analysis. Day 4 (60, 120, and 180 minutes after ingesting dose #4): One test was completed at each time point.
# (§7) Neuroenergic parameters are inherently subjective, nevertheless significant in human behavior and well-being. To allow for a standardization among different subjects, the following experiments were performed using a visual analog scale using anchor statements (lowest possible/highest possible) in which subjects were asked to rate their subjective experience with respect to the specific neuroenergic parameters tested.
# VAS-Positivity: In this subjective test, subjects were asked to rate their personal level of energy on a VAS scale using the prompt of “My level of positive outlook right now is . . . ” (with rating lowest possible to highest possible)”. Results were collected as noted above and Table 28 provides exemplary results for Day 0 versus Day 4 ratings, whereas Table 29 provides exemplary acute results measured at Day 4 over a duration of 180 minutes.
# [4] = test system: subjects; assay: VAS-Well-Being; format: in vivo, human; parameters: VAS-Well-Being rating, Mean / VAS-Well-Being changes from baseline, Mean Difference ± SE / VAS-Well-Being area under the curve, Mean Difference ± SE / VAS-Well-Being area under the curve, Mean: scale not given here
# Method: as §1, §2, §6, §7
# VAS-Well-Being: In this subjective test, subjects were asked to rate their personal level of energy on a VAS scale using the prompt of “My feeling of well-being right now is . . . ” (with rating lowest possible to highest possible)”. Results were collected as noted above and Table 34 provides exemplary results for Day 0 versus Day 4 ratings, whereas Table 35 provides exemplary acute results measured at Day 4 over a duration of 180 minutes.
# [5] = cited from earlier work
# [6] = 100 mg once daily, Day 4, 0 min after dose #4
# [7] = 100 mg once daily, Day 4, 60 min after dose #4
# [8] = 100 mg once daily, Day 4, 120 min after dose #4
# [9] = 100 mg once daily, Day 4, 180 min after dose #4
# [10] = 100 mg once daily, Day 4, 0-180 min
# [11] = 100 mg once daily, Day 4, 0-180 min, vs Group A (placebo)
# [12] = 100 mg once daily, Day 4, 60 min-0 min, vs Group A (placebo)
# [13] = 100 mg once daily, Day 4, 120 min-0 min, vs Group A (placebo)
# [14] = 100 mg once daily, Day 4, 180 min-0 min, vs Group A (placebo)
structure (smiles),measurement,setting,value
"COc1nc2c(c(=O)n1C)n(C)c(=O)n2C [methylliberine, 2-methoxy-1,7,9-trimethylpurine-6,8-dione]","Stroop total score, Mean",[1]; [6],127.4
same,"Stroop total score, Mean",[1]; [7],131.5
same,"Stroop total score, Mean",[1]; [8],132.1
same,"Stroop total score, Mean",[1]; [9],134.8
same,"Stroop total score, Mean",[1]; Day 0 (before supplementation),125.0
same,"Stroop average time, Mean",[2]; [6],0.961 s
same,"Stroop average time, Mean",[2]; [7],0.929 s
same,"Stroop average time, Mean",[2]; [8],0.921 s
same,"Stroop average time, Mean",[2]; [9],0.908 s
same,"Stroop average time, Mean",[2]; Day 0 (before supplementation),0.983 s
same,"VAS-Positivity area under the curve, Mean",[3]; [10],1235
same,"VAS-Positivity area under the curve, Mean Difference ± SE",[3]; [11],15.0 ± 43.0
same,"VAS-Positivity area under the curve, effect size d",[3]; [11],0.05
same,"VAS-Positivity rating, Mean",[3]; [6],6.4
same,"VAS-Positivity changes from baseline, Mean Difference ± SE",[3]; [12],0.07 ± 0.19
same,"VAS-Positivity changes from baseline, effect size d",[3]; [12],0.08
same,"VAS-Positivity rating, Mean",[3]; [7],6.8
same,"VAS-Positivity changes from baseline, Mean Difference ± SE",[3]; [13],−0.05 ± 0.25
same,"VAS-Positivity changes from baseline, effect size d",[3]; [13],0.05
same,"VAS-Positivity rating, Mean",[3]; [8],7.0
same,"VAS-Positivity changes from baseline, Mean Difference ± SE",[3]; [14],0.46 ± 0.27
same,"VAS-Positivity changes from baseline, effect size d",[3]; [14],0.43
same,"VAS-Positivity rating, Mean",[3]; [9],7.0
same,"VAS-Positivity rating, Mean",[3]; Day 0 (before supplementation),6.6
same,"VAS-Well-Being area under the curve, Mean",[4]; [10],1239
same,"VAS-Well-Being area under the curve, Mean Difference ± SE",[4]; [11],14.9 ± 43.0
same,"VAS-Well-Being area under the curve, effect size d",[4]; [11],−0.05
same,"VAS-Well-Being rating, Mean",[4]; [6],6.4
same,"VAS-Well-Being changes from baseline, Mean Difference ± SE",[4]; [12],0.16 ± 0.16
same,"VAS-Well-Being changes from baseline, effect size d",[4]; [12],0.22
same,"VAS-Well-Being rating, Mean",[4]; [7],6.8
same,"VAS-Well-Being changes from baseline, Mean Difference ± SE",[4]; [13],0.46 ± 0.29
same,"VAS-Well-Being changes from baseline, effect size d",[4]; [13],0.45
same,"VAS-Well-Being rating, Mean",[4]; [8],7.3
same,"VAS-Well-Being changes from baseline, Mean Difference ± SE",[4]; [14],0.54 ± 1.34
same,"VAS-Well-Being changes from baseline, effect size d",[4]; [14],0.52
same,"VAS-Well-Being rating, Mean",[4]; [9],7.2
same,"VAS-Well-Being rating, Mean",[4]; Day 0 (before supplementation),6.8
same,effect on pharmacokinetics of caffeine,[5]; methylliberine 100 mg administered in combination with caffeine 150 mg,will alter pharmacokinetic effects of caffeine
same,half-life,"[5]; oral, 25 mg and 100 mg, healthy subjects",1 to 1.4 h
